The values that follow come from patent US11254663B2 (BRISTOL-MYERS SQUIBB COMPANY, priority 2019, dated 2022).

For the test, the target named is FXR (Homo sapiens (Human), UniProt Q96RI1). The test is described as follows: transient human FXR/Gal4-luciferase reporter assay. The format is cell-based. The procedure: A Gal4-hFXR fusion construct reporter system was used as the primary assay to characterize compound activity. A construct including 5 copies of the Gal4 promoter response element upstream of a firefly luciferase reporter cDNA was stably expressed in HEK293 cells. This reporter cell line was maintained in Dulbecco's Modified Eagle's medium (DMEM; Gibco) supplemented with 1% penicillin-streptomycin (P/S) solution, 500 μg/mL Zeocin and 10% charcoal/dextran-treated fetal bovine serum (cs-FBS) at 37° C. in a humidified 5% CO2 atmosphere. Another plasmid was constructed in which the human cytomegalovirus promoter in the pcDNA3.1 vector directs the expression of the cDNA encoding a fusion protein comprised of the DNA binding domain from the Gal4 transcription factor fused to the ligand binding domain from human FXR.
Chain of FXR (Q96RI1 262-486): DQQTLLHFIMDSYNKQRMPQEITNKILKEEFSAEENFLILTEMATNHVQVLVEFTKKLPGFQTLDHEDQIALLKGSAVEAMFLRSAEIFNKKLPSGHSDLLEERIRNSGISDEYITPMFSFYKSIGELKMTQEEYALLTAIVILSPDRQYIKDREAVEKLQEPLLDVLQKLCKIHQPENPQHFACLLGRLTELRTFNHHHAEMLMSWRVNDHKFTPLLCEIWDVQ
The day prior to transfection, the reporter cells in culture are detached from the plate with trypsin and plated into a T75 flask at a sufficient density to achieve approximately 90% confluence the next morning. The transfection reagents are prepared by separately diluting 25 μg of the pcDNA3.1-Gal4-FXR plasmid into 1.87 mL of Opti-MEM (Thermo-Fisher), and 40 μL of Lipofectamine 2000 (Thermo-Fisher) into 1.87 mL of Opti-MEM, and then adding the diluted DNA solution into the diluted Lipofectamine 2000 solution and incubating at room temperature for 15-20 minutes. The mixture is further diluted with 10 mL of a solution comprised of DMEM, 10% cs-FBS, and 1% P/S immediately prior to transferring to the cells. The maintenance culture media is aspirated from the cells and the final transfection mixture is added before the cells are incubated overnight at 37° C. in a humidified 5% CO2 atmosphere. This protocol can be scaled up, and the transiently transfected cells can be cryopreserved in an assay-ready format.
For compound testing, 100 nL of the compounds (serial dilutions in DMSO) are dispensed with an Echo acoustic dispenser (Labcyte) into the wells of a Corning/Costar clear bottom 384-well white plate. The transfected cells are harvested, counted, and diluted such that 10-25,000 cells in 25 μL are plated into each well of the 384-well compound assay plate. The compound-treated cells are incubated overnight at 37° C. in a humidified 5% CO2 atmosphere. The next morning 25 μL of Steady-Glo (Promega) are added to each well of the plate, the mixture is incubated for 15 min. with shaking, and luminescence is measured on an Envision (Perkin Elmer) plate reader.
In general terms: Reporter assays use an easily measured gene product as a stand-in for the process of interest.

Where [1] appears, read: Gal4-hFXR fusion construct, HEK293 reporter cells, response relative to 8 μM GW-4064.

SMILES strings stand for the structures. Read-outs that look alike come from different tables or passages of the source.

As for `Cc1nc2ccc(-c3cccc(N(CC45CCC(c6noc(C7(C)CC7)n6)(CC4)CC5)C(=O)C45CC(F)(C4)C5)c3)cc2s1` [Example 402, 3-fluoro-N-(3-(2-methylbenzo[d]thiazol-6-yl)phenyl)-N-((4-(5-(1-methylcyclopropyl)-1,2,4-oxadiazol-3-yl)bicyclo[2.2.2]octan-1-yl)methyl)bicyclo[1.1.1]pentane-1-carboxamide], the midpoint of the response under setting [1], the EC50, lay at 35 nM.

Take `CCOc1ccc(-c2cccc(N(CC34CCC(c5nc(C(C)(C)C)no5)(CC3)CC4)C(=O)C34CC(F)(C3)C4)c2)cn1` [Example 360, N-((4-(3-(tert-butyl)-1,2,4-oxadiazol-5-yl)bicyclo[2.2.2]octan-1-yl)methyl)-N-(3-(6-ethoxypyridin-3-yl)phenyl)-3-fluorobicyclo[1.1.1]pentane-1-carboxamide]: the response under setting [1] was half-maximal at 147 nM (EC50). Take `O=C(N(CC12CCC(c3noc(C(F)F)n3)(CC1)CC2)c1cccc(-c2cnc(C3CC3)nc2)c1)C12CC(F)(C1)C2` [Example 463, N-(3-(2-cyclopropylpyrimidin-5-yl)phenyl)-N-((4-(5-(difluoromethyl)-1,2,4-oxadiazol-3-yl)bicyclo[2.2.2]octan-1-yl)methyl)-3-fluorobicyclo[1.1.1]pentane-1-carboxamide]: the response was half-maximal at 215 nM (EC50).

With `O=C(N(CC12CCC(c3ccc(C(F)(F)F)cn3)(CC1)CC2)c1cccc(-c2ccc(OC(F)F)cn2)c1)C12CC(F)(C1)C2` [Example 495, N-(3-(5-(difluoromethoxy)pyridin-2-yl)phenyl)-3-fluoro-N-((4-(5-(trifluoromethyl)pyridin-2-yl)bicyclo[2.2.2]octan-1-yl)methyl)bicyclo[1.1.1]pentane-1-carboxamide], the EC50 (usually the concentration that produces a half-maximal response) under setting [1] was 271 nM.

Take `Cc1cc(-c2cccc(N(CC34CCC(c5nc(C6CC6)no5)(CC3)CC4)C(=O)C34CC(F)(C3)C4)c2)nc2scnc12` [Example 327, N-((4-(3-cyclopropyl-1,2,4-oxadiazol-5-yl)bicyclo[2.2.2]octan-1-yl)methyl)-3-fluoro-N-(3-(7-methylthiazolo[5,4-b]pyridin-5-yl)phenyl)bicyclo[1.1.1]pentane-1-carboxamide]: the midpoint of the response under setting [1], the EC50, lay at 303 nM.

`O=C(N(CC12CCC(c3nc(C4CC4)no3)(CC1)CC2)c1cccc(-c2cc(Br)cn3ncnc23)c1)C12CC(F)(C1)C2` [Example 326, N-(3-(6-bromo-[1,2,4]triazolo[1,5-a]pyridin-8-yl)phenyl)-N-((4-(3-cyclopropyl-1,2,4-oxadiazol-5-yl)bicyclo[2.2.2]octan-1-yl)methyl)-3-fluorobicyclo[1.1.1]pentane-1-carboxamide] returned a concentration for a half-maximal effect (EC50) under setting [1] of 782 nM. For `CC1(O)CC(C(=O)N(CC23CCC(c4noc(C(C)(C)C)n4)(CC2)CC3)c2cccc(-c3ccc(OC(F)F)cc3)c2)C1` [Example 517, (1S,3S)—N-((4-(5-(tert-butyl)-1,2,4-oxadiazol-3-yl)bicyclo[2.2.2]octan-1-yl)methyl)-N-(4′-(difluoromethoxy)-[1,1′-biphenyl]-3-yl)-3-hydroxy-3-methylcyclobutane-1-carboxamide], it took 255 nM to reach a half-maximal effect (EC50). The compound `O=C(N(CC12CCC(c3nc(C4CC4)no3)(CC1)CC2)c1cccc(-c2ccn3ccnc3c2)c1)C12CC(F)(C1)C2` [Example 288, N-((4-(3-cyclopropyl-1,2,4-oxadiazol-5-yl)bicyclo[2.2.2]octan-1-yl)methyl)-3-fluoro-N-(3-(imidazo[1,2-a]pyridin-7-yl)phenyl)bicyclo[1.1.1]pentane-1-carboxamide] displayed a half-maximal effective concentration (EC50) under setting [1] of 539 nM.

The compound `O=C(C1CC(O)(C(F)(F)F)C1)N(CC12CCC(c3noc(-c4ccc(F)cc4)n3)(CC1)CC2)c1cccc(-c2ccc(OC(F)F)cc2)c1` (stereo not drawn) [Example 639, (cis)-N-(4′-(difluoromethoxy)-[1,1′-biphenyl]-3-yl)-N-((4-(5-(4-fluorophenyl)-1,2,4-oxadiazol-3-yl)bicyclo[2.2.2]octan-1-yl)methyl)-3-hydroxy-3-(trifluoromethyl)cyclobutane-1-carboxamide] showed a concentration giving a half-maximal response (EC50) under setting [1] of 221 nM.
